Assay results: patent publication US20250388623A1, “PEPTIDE INHIBITOR AND USE THEREOF” (CHENGDU BRILLIANT INSPIRATION BIOTHERAPEUTICS CO., LTD, priority 2022, published 2025)
Bridge positions count the residues as written; N and C are the ends. Peptide text beside a SMILES is read from it.

System: mouse lung fibrosis model induced by bleomycin (BLM)
Experiment: Inflammatory and fibrotic pathology (HE, Masson's trichrome) in BLM mouse fibrosis model
Format: in vivo
Design: scale not given here
Details: for Inflammatory score Mean: 3 mg/kg intratracheal twice weekly x4 from Day 8, Day 21, HE staining, BLM model 2.25, negative control 0.36; for Fibrosis score Mean: 3 mg/kg intratracheal twice weekly x4 from Day 8, Day 21, Masson's trichrome, BLM model 3.25, negative control 1.01
Protocol: This Example was to assess the inhibitory effect of polypeptides on fibrotic pathology. 6- to 8-week-old male C57/6J mice weighing 18-20 g were used as subjects for the study. The experimental animals were randomized into groups, 6 animals in each group. On the day of modeling (Day 1), a single dose of 0.7 USP/kg of BLM solution was administered via the tracheal route to the BLM group and each peptide-treated group to induce the model. The negative control group received an equal volume of saline. Treatment dosing started on Day 8. Each peptide-treated group received the peptide drug intratracheally at a dosage of 3 mg/kg, while the positive control group received the peptide of SEQ ID NO: 50 at the same dosage, and the administration frequency was twice a week, with a total of 4 administrations. The BLM model group and the negative control group received an equal volume of solvent (saline) as a control. The procedure followed that described in Example 4.
On Day 21, the lung tissues were dissected, washed with saline to remove blood stains, and dried with gauze. Histopathological analysis was then performed on the dissected lung tissues. The lung tissues were perfused with 0.5 mL of paraformaldehyde via the trachea and placed in 4 mL of paraformaldehyde. A small amount of gauze was added to ensure the lung tissues were completely immersed in the fixative solution. The tissues were fixed for more than 24 hours. One lobe of the left lung and four lobes of the right lung were trimmed to the maximum coronal plane, placed in an embedding cassette, dehydrated overnight, and then paraffin-embedded to make 3 μm sections. An autostainer (Leica, model ST5010) was used for Hematoxylin (Herst, lot no. 201905)-Eosin (Chron, lot no.2018070301) (HE) staining, and MASSON'S trichrome (Celestineblue, Chron, lot no. MKCH8129; Aniline blue, Yuanye, lot no. H70J11S115483; Ponceau, Sigma, lot no. SHBM2047) staining. After mounting the sections, they were scanned using a digital panoramic scanner (Zhiyue, model WS-10). For each lung lobe, ≤10 visual fields were captured under a 20× magnification. The severity of inflammation and the severity of fibrosis were assessed using HE staining and Masson's trichrome staining, respectively, to evaluate the inhibitory effects of the polypeptides on inflammatory infiltration and fibrotic deposition at pathological fibrotic sites.

Compound	Inflammatory score Mean	Fibrosis score Mean
CC(=O)N[C@H](C(=O)N[C@H]1CSSC[C@@H](C(=O)O)NC(=O)[C@H](CC(N)=O)NC(=O)[C@H](CC(=O)O)NC(=O)[C@H](CCC(=O)O)NC(=O)[C@H](C)NC(=O)[C@H](CC(=O)O)NC1=O)[C@@H](C)O [SEQ ID NO: 43, Ac-Thr-cyclo[Cys-Asp-Ala-Glu-Asp-Asn-Cys]] (Ac-TCDAEDNC-OH; disulfide 2-8)	1.46	2.59
Ac-TQDAEDN-NH2 [SEQ ID NO: 06, Ac-Thr-Gln-Asp-Ala-Glu-Asp-Asn-NH2]	1.65	2.65
Ac-TQDAEDNTASH-NH2 [SEQ ID NO: 33, Ac-Thr-Gln-Asp-Ala-Glu-Asp-Asn-Thr-Ala-Ser-His-NH2]	1.27	2.64
Ac-TQDAEDPTA-NH2 [SEQ ID NO: 22, Ac-Thr-Gln-Asp-Ala-Glu-Asp-Pro-Thr-Ala-NH2]	1.43	2.33
Ac-TQDAEDPTAS-NH2 [SEQ ID NO: 25, Ac-Thr-Gln-Asp-Ala-Glu-Asp-Pro-Thr-Ala-Ser-NH2]	1.39	2.47
Ac-TQDPEDNTAS-NH2 [SEQ ID NO: 26, Ac-Thr-Gln-Asp-Pro-Glu-Asp-Asn-Thr-Ala-Ser-NH2]	0.95	2.05
